Positions of bridges follow the written chain, without caps; N, C: chain ends. Non-standard residues stand in square brackets, D forms with d. Residues, ends and D or L forms follow the SMILES beside them. βAla = NCCC(=O)O
Legend:
NCI-H460 cells [1] = assay: Cell cycle analysis, PI staining, flow cytometry; type: cell-based, human
Experimental: For cell cycle analysis, NCI-H460 cells were incubated with 30 µM CIGB-300 or with 5 µM CX-4945, respectively, during 6 h, 24 h and 48 h. Following treatment with the peptide, cells were collected by centrifugation, washed with PBS, and fixed at 4 °C for 2 h with ice-cold 70% ethanol. After fixation, cells were treated with DNase-free RNase A (Sigma, St. Louis, MO, USA) and subsequently stained at 37 °C for 20 min with […] PI solution (Sigma, St. Louis, MO, USA). Stained cells were analyzed in the above-mentioned Partec CyFlow Space flow cytometry, and FlowJo Software (v7.6.1) was used for data processing and visualization. All experiments were performed at least four times.

c-Myc = assay: Western blot, cancer molecular markers; type: cell-based, human
Experimental: (§1) NCI-H460 cells were plated on six-well cell culture plates at 1 × 10^6 cells per well and incubated overnight at 37 °C and 5% CO2. […] After incubation, the culture medium was withdrawn, and cells were washed with PBS and lysed in RIPA buffer containing protease/phosphatase inhibitor (Thermo Fisher Scientific, Waltham, MA, USA). Western blot detection was carried out as described (4.6). Primary antibodies against phospho-PTEN (S380) and total PTEN (Cell Signaling Technology, Danvers, MA, USA), phospho-RPS6 (S235/236) and total RPS6 (Cell Signaling Technology, Danvers, MA, USA), Ezrin (Abcam, Cambridge, UK), c-Myc (CIGB, SP, Cuba), and Fibrillarin (Abcam, Cambridge, UK) were used. Primary antibodies against CK2 subunits were used as previously described. All experiments were performed at least two times.

NCI-H460 cells [2] = assay: Annexin V-FITC/PI staining, apoptosis by flow cytometry; type: cell-based, human
Experimental: Apoptosis of NCI-H460 cells was measured using FITC Annexin V Apoptosis Detection Kit (BD Biosciences, San Jose, CA, USA). […] NCI-H460 cells were incubated also with 5 µM CX-4945 for 6 h, 24 h and 48 h. Subsequently, cells were washed twice with cold PBS and resuspended in binding buffer (1X) at a final concentration of 1 × 10^6 cells/mL. Finally, 5 µL of FITC Annexin V and PI were added, and cell suspensions were incubated for 15 min at room temperature in the dark. Flow cytometric analysis of stained cells was performed as previously described. All experiments were performed at least two times.

[3] = tested on: mRNA levels of CK2 subunits; assay: Quantitative real-time PCR of CK2 subunit transcripts; type: cell-based, human; settings: normalised to GAPDH and HMBS
Experimental: Three replicates per condition were used. […] Louis, MO, USA) for RNA isolation (AllPrep DNA/RNA/miRNA Universal Kit, Qiagen, Valencia, CA, USA), according to the manufacturer protocol. All RNA samples were checked by Nanodrop spectrophotometer to measure concentration (ng/μL) and OD relation (260/280 nm). […] Complementary (c)DNAs were obtained from 500 ng of total RNAs, using the Transcriptor First Strand cDNA Synthesis Kit package (Roche, Mannheim, Germany), following manufacturer instructions. […] We amplified two genes for normalization of GAPDH (glyceraldehyde-3-phosphate dehydrogenase) and HMBS (hydroxymethyl-bilane synthase), and the transcripts encoding for CK2 subunits. All the oligonucleotides were synthetized in the Synthesis Department at CIGB (Table S1). Runs were carried out in the LightCycler® 480II equipment (Roche, Mannheim, Germany) in a 96-well format and SYBR Green Probe II mode with a standard program with 45 cycles. Fold changes for transcripts in each treatment were calculated with respect to time-matched control groups after normalization with GAPDH and HMBS genes (v2.0.13, Qiagen GbmH, Munich, Germany), using Ct values and reaction efficiencies per amplicon calculated in […]11.3). Statistical differences are reported in this program, with a p-value-associated with a significance for p < 0.05.

NCI-H460 cells [4] = assay: Antiproliferative assay, crystal violet staining; type: cell-based; settings: Homo sapiens, 48 h incubation, CalcuSyn, mean, n = 4, read-out: IC50, antiproliferative effect
Experimental: NCI-H460 was originally obtained from the American Type Culture Collection (ATCC, Manassas, VA, USA). The cell line was cultured in Dulbecco’s modified Eagle’s medium (DMEM) (Gibco, Waltham, MA, USA) supplemented with 10% (v/v) fetal bovine serum (FBS, Invitrogen, Carlsbad, CA, USA) and 50 µg/mL gentamicin (Sigma, St. Louis, MO, USA). Cells were maintained at 37 °C and 5% CO2.
Antiproliferative effect was determined using crystal violet staining. Cells were seeded in flat-bottom 96-well plates (6000 cells/mL), and 24 h later, serial dilutions 1:2 ranging from 200 to 12.5 µM of CIGB-300 and serial dilutions 1:2 ranging from 50 to 3.12 µM of CX-4945 were added, respectively. After 48 h of incubation, the medium was removed from each well and crystal violet (1%) (Sigma, St. Louis, MO, USA) was added and incubated for 5 min at room temperature. After dye removal, wells were washed with water. Absorbance was measured in a CLARIOstar microplate reader (BMG LABTECH, Ortenberg, Germany), and half-inhibitory concentration (IC50) values were estimated using CalcuSyn software (v2.1) (Biosoft, Cambridge, UK).

other solid tumor cells = tested on: other solid tumor cells; design: method as in PMID 35155265; settings: read-out: IC50 mean value, antiproliferative effect; cited from earlier work
CK2β = assay: In vivo pull-down plus Western blot; type: binding, human; settings: biotin-tagged peptide 30 µM, 0.5 h, NCI-H460 cells
Experimental: (§2) For in vivo pull-down assays, N-terminal biotin tagged CIGB-300 (CIGB-300-B) was added to NCI-H460 cells at a final concentration of 30 µM and incubated for 30 min at 37 °C and 5% CO2. Subsequently, cells were collected, washed, and lysed in PBS solution (Sigma, St. Louis, MO, USA) containing 1 mM DTT (Sigma, St. Louis, MO, USA), Triton X-100 (1%), and complete protease inhibitor (Roche, Basel, Switzerland). Cellular lysates were cleared by centrifugation and added to 30 μL of pre-equilibrated streptavidin–sepharose matrix (GE Healthcare, Chicago, IL, USA). In the case of RNA pre-treatment, another cell extract was incubated with RNAase A (10 mg/mL) (Promega, Madison, WI, USA) for 20 min at 37 °C. Following 1 h at 4 °C, the matrix was collected by centrifugation and extensively washed with cold PBS 1 mM and DTT. Proteins bound to streptavidin–sepharose matrix were digested with trypsin (Promega, Madison, WI, USA) during 16 h or eluted for Western blot analysis. In parallel, untreated cells were subjected to the same experimental procedure to identify those proteins non-specifically bound to streptavidin–sepharose matrix. Proteins were resolved in 12% SDS-PAGE and then transferred to a nitrocellulose membrane. […]

RPS6 = assay: In vivo pull-down plus Western blot; type: binding, human; settings: biotin-tagged peptide 30 µM, 0.5 h, NCI-H460 cells; RNAase free assay
Experimental: as §2

p-RPS6 (S235/236) = assay: Western blot, CK2 downstream signaling; type: cell-based, human; settings: NCI-H460, 30 µM, 48 h
Experimental: as §1

A549 = A549 NSCLC cell line; cited from earlier work
Source text: In this work, we evaluated for the first time the molecular events supporting CK2 inhibition by CIGB-300 in an LCLC in vitro model such as NCI-H460 cells.

PTEN = target: T1, PTEN (Homo sapiens, UniProt P60484); assay: In vivo pull-down plus Western blot; type: binding; settings: biotin-tagged peptide 30 µM, 0.5 h, NCI-H460 cells
T1 construct: endogenous in cells; host or cells: NCI-H460
T1 sequence (P60484 whole entry): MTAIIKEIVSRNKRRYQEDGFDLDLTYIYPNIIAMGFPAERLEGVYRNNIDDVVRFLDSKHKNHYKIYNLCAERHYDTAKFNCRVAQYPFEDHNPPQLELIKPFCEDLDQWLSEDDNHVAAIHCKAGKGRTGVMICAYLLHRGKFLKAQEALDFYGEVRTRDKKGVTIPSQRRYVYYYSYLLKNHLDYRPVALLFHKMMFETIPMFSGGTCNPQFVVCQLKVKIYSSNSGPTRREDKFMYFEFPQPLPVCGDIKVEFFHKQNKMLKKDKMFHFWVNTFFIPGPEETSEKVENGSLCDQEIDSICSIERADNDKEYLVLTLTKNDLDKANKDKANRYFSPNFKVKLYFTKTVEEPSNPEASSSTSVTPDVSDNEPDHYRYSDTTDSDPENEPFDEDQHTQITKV
Experimental: as §2, with “membrane. For Western blot analysis, a mouse monoclonal antibody against CK2α (Abcam, Cambridge, UK), a rabbit polyclonal antibody against CK2α′ (Abcam, Cambridge, UK), a mouse monoclonal antibody against CK2β (Sigma, St. Louis, MO, USA), and monoclonal rabbit antibodies against PTEN and RPS6 (Cell Signaling, Danvers, MA, USA), respectively, were used as primary antibodies. Detection was performed with peroxidase-conjugated anti-mouse IgG 1:5000 (Sigma, St. Louis, MO, USA) and anti-rabbit IgG 1:5000 (Sigma, St. Louis, MO, USA). […]” for “membrane.”

CK2α = target: T2, CK2α (Homo sapiens, UniProt P68400); assay: In vivo pull-down plus Western blot; type: binding; settings: biotin-tagged peptide 30 µM, 0.5 h, NCI-H460 cells
T2 construct: endogenous in cells; host or cells: NCI-H460
T2 sequence (P68400 whole entry): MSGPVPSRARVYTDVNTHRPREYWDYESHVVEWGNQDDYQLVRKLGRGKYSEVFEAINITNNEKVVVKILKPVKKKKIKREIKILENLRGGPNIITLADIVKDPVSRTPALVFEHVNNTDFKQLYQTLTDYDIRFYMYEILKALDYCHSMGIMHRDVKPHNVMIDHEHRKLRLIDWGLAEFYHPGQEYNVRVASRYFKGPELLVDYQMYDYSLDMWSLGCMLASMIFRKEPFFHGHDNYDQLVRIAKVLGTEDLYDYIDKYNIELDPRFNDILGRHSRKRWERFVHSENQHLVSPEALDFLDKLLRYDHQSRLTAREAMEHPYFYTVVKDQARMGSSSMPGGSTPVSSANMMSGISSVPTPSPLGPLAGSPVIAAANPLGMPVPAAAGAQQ
Experimental: as §2, with “membrane. For Western blot analysis, a mouse monoclonal antibody against CK2α (Abcam, Cambridge, UK), a rabbit polyclonal antibody against CK2α′ (Abcam, Cambridge, UK), a mouse monoclonal antibody against CK2β (Sigma, St. Louis, MO, USA), and monoclonal rabbit antibodies against PTEN and RPS6 (Cell Signaling, Danvers, MA, USA), respectively, were used as primary antibodies. Detection was performed with peroxidase-conjugated anti-mouse IgG 1:5000 (Sigma, St. Louis, MO, USA) and anti-rabbit IgG 1:5000 (Sigma, St. Louis, MO, USA). […]” for “membrane.”

CK2α′ = target: T3, CK2α′ (Homo sapiens, UniProt P19784); assay: In vivo pull-down plus Western blot; type: binding; settings: biotin-tagged peptide 30 µM, 0.5 h, NCI-H460 cells
T3 construct: endogenous in cells; host or cells: NCI-H460
T3 sequence (P19784 whole entry): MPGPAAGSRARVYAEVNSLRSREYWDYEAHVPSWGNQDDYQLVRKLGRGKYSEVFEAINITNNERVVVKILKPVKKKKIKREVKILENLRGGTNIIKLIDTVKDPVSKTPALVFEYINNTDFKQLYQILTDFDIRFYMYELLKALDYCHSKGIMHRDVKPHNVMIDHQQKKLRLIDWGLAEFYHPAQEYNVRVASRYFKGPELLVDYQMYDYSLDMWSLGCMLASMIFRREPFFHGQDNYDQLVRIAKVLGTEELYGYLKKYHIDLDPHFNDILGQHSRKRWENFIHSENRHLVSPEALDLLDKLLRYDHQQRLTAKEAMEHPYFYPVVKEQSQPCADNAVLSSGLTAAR
Experimental: as §2, with “membrane. For Western blot analysis, a mouse monoclonal antibody against CK2α (Abcam, Cambridge, UK), a rabbit polyclonal antibody against CK2α′ (Abcam, Cambridge, UK), a mouse monoclonal antibody against CK2β (Sigma, St. Louis, MO, USA), and monoclonal rabbit antibodies against PTEN and RPS6 (Cell Signaling, Danvers, MA, USA), respectively, were used as primary antibodies. Detection was performed with peroxidase-conjugated anti-mouse IgG 1:5000 (Sigma, St. Louis, MO, USA) and anti-rabbit IgG 1:5000 (Sigma, St. Louis, MO, USA). […]” for “membrane.”

NCI-H125 = NCI-H125 NSCLC cell line; cited from earlier work
[5] = NCI-H460, 5 µM, 6 h, 24 h and 48 h

O=C(O)c1ccc2c(c1)nc(Nc1cccc(Cl)c1)c1ccncc12 [CX-4945, reference compound]
cell cycle modulation versus untreated cells (NCI-H460 cells [1]; [5]): modified the amount of the cell population in all phases of the cell cycle | effect on c-Myc protein expression (c-Myc; NCI-H460, 5 µM, 6 h to 48 h): induced c-Myc up-regulation | changes in the double-positive region of the panel (NCI-H460 cells [2]; [5]): did not induce any remarkable changes | up-regulation of mRNA levels of CK2 subunits ([3]; NCI-H460, 5 µM, longer incubation times (3 h to 24 h)): no more than 1.5 fold | IC50 (NCI-H460 cells [4]): 5 ± 2.1 µM

CSCC[C@@H]1NC(=O)[C@H](Cc2c[nH]c3ccccc23)NC(=O)[C@@H](NC(=O)CCNC(=O)[C@H](CCC(N)=O)NC(=O)[C@@H]2CCCN2C(=O)[C@@H]2CCCN2C(=O)[C@H](CCCNC(=N)N)NC(=O)[C@H](CCCNC(=N)N)NC(=O)[C@H](CCCNC(=N)N)NC(=O)[C@H](CCC(N)=O)NC(=O)[C@H](CCCNC(=N)N)NC(=O)[C@H](CCCNC(=N)N)NC(=O)[C@H](CCCCN)NC(=O)[C@H](CCCCN)NC(=O)[C@H](CCCNC(=N)N)NC(=O)CN)CSSC[C@@H](C(=O)O)NC(=O)[C@H]([C@@H](C)O)NC(=O)CNC(=O)[C@H](CC(C)C)NC(=O)[C@H](Cc2c[nH]cn2)NC(=O)[C@H](CCCNC(=N)N)NC(=O)[C@@H]2CCCN2C(=O)[C@H](CO)NC1=O [CIGB-300] (H-GRKKRRQRRRPPQ[βAla]CWMSPRHLGTC-OH; disulfide 15-25; N-terminus and C-terminus assumed)
perturbation of cells accumulated in the G0/G1 and S phases of the cell cycle (NCI-H460 cells [1]; NCI-H460, 30 µM, S phase at 6 h, G0/G1 at 24 h and 48 h): 10–15% | IC50 (other solid tumor cells): 60 to 300 µM | effect on c-Myc protein expression (c-Myc; NCI-H460, 30 µM, 0.5 h to 48 h): decreased c-Myc protein expression throughout all incubation times | regulatory subunit (β) of CK2 in pull-down fraction (CK2β): only minor levels | interaction with RPS6 in pull-down fraction (RPS6): evident interaction | apoptotic peak (NCI-H460 cells [2]; NCI-H460, 30 µM, at 6 h): ~50% | effect on p-RPS6 (S235/236) (p-RPS6 (S235/236)): potent inhibition | IC50 (A549): 171 µM | up-regulation of mRNA levels of CK2 subunits ([3]; NCI-H460, 30 µM, earlier times (0.5 h, 3 h, 6 h)): no more than 1.5 fold | interaction with PTEN in pull-down fraction (PTEN): did not interact | interaction with CK2α in pull-down fraction (CK2α): mainly interacted | interaction with CK2α′ in pull-down fraction (CK2α′): mainly interacted | IC50 (NCI-H125): 60 µM

Reference: paper PMC9856093, “CIGB-300 Anticancer Peptide Differentially Interacts with CK2 Subunits and Regulates Specific Signaling Mediators in a Highly Sensitive Large Cell Lung Carcinoma Cell Model” (Biomedicines, 2022)
